Assays:
[1] = test system: patients with relapsed or refractory PTCL; test: PROPEL analysis by treatment duration: treatment discontinuation and adverse events; type: in vivo, human
Experimental: The pivotal PROPEL study of pralatrexate (FOLOTYN®) in patients with relapsed or refractory PTCL reported a rapid response to treatment in a heavily pretreated patient population. The majority of patients (63% of responders) responded by their first assessment at 7 weeks (the end of cycle 1). The present analysis assessed if there were any unique characteristics of patients who were unable to complete the first cycle of therapy and to assess the outcomes of patients who received ≧1 or ≧2 cycles of pralatrexate. Pralatrexate, a folate analog targeting dihydrofolate reductase, was approved in the United States for treatment of relapsed or refractory PTCL based on the PROPEL study. Methods: In PROPEL, patients received 30 mg/m^2 pralatrexate once weekly for 6 weeks in successive 7-week cycles. […] Cycle completion was determined receiving ≧1 dose in the following cycle. Thus, the subgroup of patients who completed ≧1 (n=64) includes those patients who only completed 1 cycle+the 43 who completed ≧2 cycles of treatment. […] However, the patients not completing cycle lwere more likely to have the angioimmunoblastic subtype (20% vs 6%). Patients in each subgroup received a median of 3 prior treatment regimens.
The most frequent reasons for treatment discontinuation were similar for patients with <1 cycle, ≧1 cycle or ≧2 cycles, although the incidence of discontinuation was lower for patients with ≧1 or 2 cycles. […] However, the percentage of patients in whom mucosal inflammation led to treatment discontinuation was similar (<1: 4%; ≧1: 6%; ≧2: 2%). […] Patients who were unable to complete cycle 1 were more likely to have quickly progressed through multiple lines of therapy and were more likely to have the angioimmunoblastic subtype, which a subtype is thought to have a different biology than other PTCL subtypes and lower chemosensitivity. Further analysis of this subtype is warranted.

[2] = test system: relapsed or refractory PTCL; test: Progressive resistance analysis: PFS and response rate on pralatrexate vs previous lines of therapy (PDX-008, patients as their own control); type: in vivo, human; conditions: for Progression-free Survival Median: Kaplan-Meier
Experimental: Analysis of progressive resistance. The treatment immediately prior to entry into clinical trial PDX-008 provides data from a heterogeneous control group reflecting clinical practice with which to compare the efficacy of pralatrexate. This dataset has the benefit of being from the same patients as those receiving pralatrexate, and so avoids inter-subject variation.
Methodology: In order to explore this progressive resistance concept, retrospective analyses were performed looking at patients' response and PFS to prior therapies using patients as their own control. It was hypothesized that the response rates and PFS would be lower with each subsequent line of therapy (hypothesis #1). Analyses were conducted on those patients who received at least 3 prior therapies. PFS and response rate of third prior therapy (−3) were compared with those of the second prior therapy (−2), PFS and response rate of second prior therapy (−2) were compared with those last line of therapy (−1) prior to pralatrexate, and PFS and response rate of last line of therapy (−1) were compared with pralatrexate therapy for these patients. These analyses utilized investigator assessment of PFS, and response since central review of tumor assessments on prior therapies was not available.
Therefore, an analysis was conducted on all patients comparing PFS and response rate of last line of therapy with those of pralatrexate therapy.
For examining hypothesis #1, there were 57 patients (−3) who had undergone at least 3 prior therapies before entry into PDX-008. […] Examination of the pattern beyond 3 previous treatments would be progressively uninformative as fewer and fewer patients would be entered into the analysis. 1. See also FIG. 2.
There were 86 patients who had undergone at least 2 prior therapies before entry into PDX-008. This cohort included the 57 patients who received 3 or more previous treatments and 29 additional patients who received exactly 2 treatments prior to treatment with pralatrexate.
For examining hypothesis #2, PFS and response rate were compared following pralatrexate treatment with the treatment immediately prior to study entry for all 109 PTCL patients evaluated for efficacy in PDX-008. This cohort included the 86 patients who received 2 or more previous treatments and 23 patients who received only 1 treatment prior to pralatrexate.
Overview of Calculations: Time to progression of disease (PD) was calculated from the start date of the prior therapy administered to the date of progression+1 day.
PFS time was calculated as the number of days from start of prior treatment to the date of PD (date of PD−start date of prior treatment+1).
PFS time was calculated as the number of days from start of treatment to the date of PD or death, regardless of cause (date of PD or death−start date of pralatrexate treatment+1).
In addition, the PFS hazard ratio (HR), along with 95% confidence intervals (CIs), were estimated via the Cox regression model.
To assess the objective response rate (ORR) and PFS with each subsequent line of therapy and the effect of pralatrexate on ORR and PFS: In the first population group (n=57), i.e., group including patients with ≧3 prior systemic therapies, PFS and ORR of the third therapy prior to pralatrexate (−3) were compared with those of the second prior therapy (−2) to pralatrexate; PFS and ORR of the second prior therapy (2) were compared with those of the most recent line of therapy (−1) prior to pralatrexate; and PFS and ORR of the most recent line of therapy (−1) were compared with pralatrexate therapy for these patients.
In the second population group (n=86), i.e., group including patients with ≧2 prior systemic therapies, PFS and ORR of the second prior therapy (2) were compared with those of the most recent line of therapy (−1) prior to pralatrexate; and PFS and ORR of the most recent therapy (−1) were compared with pralatrexate therapy for these patients.

[3] = all patients (≧1 prior therapy), N=109, investigator assessment
[4] = patients with ≧2 previous treatments, N=86, investigator assessment
[5] = patients with ≧3 previous treatments, N=57, investigator assessment

In the case of `C#CCC(Cc1cnc2nc(N)nc(N)c2n1)c1ccc(C(=O)N[C@@H](CCC(=O)O)C(=O)O)cc1` (mixture of isomers) [Pralatrexate, (2S)-2-[[4-[(1RS)-1-[(2,4-diaminopteridin-6-yl)methyl]but-3-ynyl]benzoyl]amino]pentanedioic acid], the “Additional patients with dose reductions in cycle 2 due to mucosal inflammation who continued treatment” value ([1]; 4 patients) is reported as 9%, the “Discontinued due to adverse events (AEs)” value ([1]; 45 patients who did not complete cycle 1) is reported as 29% and the “Incidence of Grade 3-4 anemia” value ([1]; <1 cycle) is reported as 27%. For the same compound, the “Incidence of Grade 3-4 mucosal inflammation” value ([1]; <1 cycle) was 24%, the “Incidence of Grade 3-4 thrombocytopenia” value ([1]; <1 cycle) was 40% and the “Patients in whom mucosal inflammation led to treatment discontinuation” value (“Patients … to treatment discontinuation” for short) ([1]; <1 cycle) was 4%. The “Patients with dose reductions due to mucosal inflammation in cycle 1 who continued treatment” value ([1]; Eight patients) was 13%, the “Patients with a response to pralatrexate” value ([1]; of the 4 patients with dose reductions in cycle 2 due to mucosal inflammation) was 3 patients and the “Patients with a response to pralatrexate” value ([1]; of the 8 patients with dose reductions due to mucosal inflammation in cycle 1) was 4 patients. The “Incidence of Grade 3-4 anemia” value ([1]; ≧1 cycle) was 13%, the “Incidence of Grade 3-4 mucosal inflammation” value ([1]; ≧1 cycle) was 19% and the “Incidence of Grade 3-4 thrombocytopenia” value ([1]; ≧1 cycle) was 28%. For the same compound, the “Patients … to treatment discontinuation” value ([1]; ≧1 cycle) was 6%, the “Incidence of Grade 3-4 anemia” value ([1]; ≧2 cycles) was 9% and the “Incidence of Grade 3-4 mucosal inflammation” value ([1]; ≧2 cycles) was 12%. For the same compound, the “Incidence of Grade 3-4 thrombocytopenia” value ([1]; ≧2 cycles) was 21%, the “Patients … to treatment discontinuation” value ([1]; ≧2 cycles) was 2% and the “Response Rate” value [2, 3] was 39%. The “Progression-free Survival Median” value [2, 3] was 121.00 days, the “PFS Hazard Ratio, −1 vs pralatrexate” value ([2]; all patients, N=109, Cox regression, 95% CI) was 1.051 and the “Response Rate (ORR)” value [2, 4] was 40%. The “Progression-free Survival Median” value [2, 4] was 119.00 days, the “Progression-free Survival Median” value ([2]; patients with ≧2 previous treatments, N=86, investigator assessment, listed as pralatrexate) was 119 days and the “Trend of decreased ORR and PFS with successive lines of therapy” value ([2]; patients with ≧3 or ≧2 previous treatments) was “reversed”. The “Response Rate (ORR)” value [2, 5] was 40%, the “Progression-free Survival Median” value [2, 5] was 134.00 days and the “Progression-free Survival Median” value ([2]; patients with ≧3 previous treatments, N=57, investigator assessment, listed as pralatrexate) was 134 days.

— US20130178441A1, “Methods for Extending Progression-Free Survival using 10-Propargyl-10-Deazaaminopterin” (ALLOS THERAPEUTICS, INC., priority 2010, published 2013)
